Here are results for 1 compound from patent publication US12390467B2, “Necroptosis inducers or autophagy inhibitors or a combination thereof” (The University of Toledo, priority 2018, dated 2025).

What all share (assay type): cell-based
One test has as its system BT-20 cells. The test can be described thus: incuCyte live cell imaging of proliferation. The note with it: 0.1, 1, 3, and 10 μM. The source says: FIG. 4: Representative images of the anti-proliferative effect of TPH104 at different concentrations and different time points in BT-20 cells. The time lapse images were taken using an incuCyte live cell imaging instrument (10×). **p<0.01, ***p<0.001, ****p<0.0001 compared to the control.

Another test concerns MDA-MB468 and MDA-MB231. The test can be described thus: Cell cycle analysis (PI, flow cytometry). Conditions: 0.5, 1, 2 μM, 12 h. On the procedure: The cell cycle analysis was performed to evaluate the effect of TPH104 on the normal cell cycle in the TNBC cell lines (i.e. MDA-MB 468, MDA-MB231 and BT-20). Cells were plated in a 6-well plate at a suitable density as previously described and incubated overnight to allow for cell attachment. The following day, cells were incubated with different TPH104 concentrations (0.5, 1, or 2 μM) or vehicle for 12 h. The cells were harvested by trypsinization and collected in individual test tubes. Subsequently, cells were washed 3× with ice cold PBS and fixed with 70% ethanol for 30 minutes. Following fixation, cells were again washed 3× with intermittent centrifugation at 2000 rpm for 5 minutes and incubated with 100 μl RNAse (from a 100 μg/ml stock) (to ensure that only DNA was stained). Two hundred μl of PI (from a 50 μg/ml stock solution) was added to each test tube and cells were stain cells for at least 15 minutes on ice. Finally, a FACS Calibur flow cytometer (BD Biosciences, San Jose, CA) was used to detect the distribution of the cells following incubation with vehicle or TPH104. FlowJo v10.2 software from FlowJo LLC (Ashland, OR) was used for data analysis.
On the technique in general: Flow cytometry measures light scatter and fluorescence of single cells or particles in a stream.

Test [1] has as its system BT-20 and MDA-MB468 cells. The test can be described thus: Mitochondrial membrane potential assay (MitoTracker Red / Alexa Fluor 488 annexin V). Conditions: 0.5, 1, and 2 μM. On the procedure: This assay is a direct measure of the structural integrity of mitochondria. Cells were seeded as indicated in the cell cycle assay and incubated for 24 h at 37° C. The next day, TPH104 (0.5, 1, 2 μM) or vehicle and incubated with the cells for 12 h. The cells were harvested, washed 2× with PBS, counted, and their concentrations were adjusted to 5×10^6 cells/well in the culture medium. Subsequently, 4 μl of the 10 μM solution of mitotracker red was added to each 1 ml aliquot of cells and incubated with the cells for 30 minutes at 37° C. The cells were washed 2× with PBS and re-suspended in the 100 μl of 1× annexin-binding buffer. The cells were stained with Alexa Fluor for 15 minutes and analyzed using flow cytometry as described in the manufacturer protocol (Thermofisher, USA).

Test [2] has as its system Bak, Bax, Bcl-2, caspases, PARP, cytochrome c in BT-20 cells. The test can be described thus: Western blot, apoptotic proteins. On the procedure:
(§1) The TNBC cells were seeded in a culture flask and incubated for 24 h. The cells were then incubated with different concentrations of the lead compounds and re-incubated for an additional 12 or 24 h. […] The bicinchoninic acid (BCA) was used to determine protein concentration in the cell extracts (G-BIOSCIENCES, St. Louis, MO, USA). […] The membrane was blocked using 5% milk in Tris-buffered Tween 20 saline for 30 minutes. The membrane was then incubated overnight with primary antibodies against Bak, Bax, Bcl-2, caspase9, caspase 3, caspase 7, PARP, cytochrome c, N-cadherin, E-cadherin, c-Myc, dishevelled segment polarity protein 3 (DVL3), dishevelled segment polarity protein 2 (DVL2), Vimentin, mitogen-activated protein kinase kinase (MAPKK also known as MEK1/2), β-catenin, low-density lipoprotein receptor-related protein 6 (LRP6), receptor-interacting protein kinase (RIP), phosphorylated RIP (p-RIP), mixed lineage kinase domain like pseudokinase(MLKL), Caspase 8, light chain 3 (LC3), lysosomal-associated membrane protein 1 (LAMP1), unc-51 like autophagy activating kinase 1 (ULK1), ras associated protein 7 (Rab7), ras associated protein 5 (Rab5), Beclin 1, mechanistic target of rapamycin (mTOR), tumor necrosis factor alpha (TNF-α), tumor necrosis factor receptor 1 (TNFR1), tumor necrosis factor receptor 2 (TNFR2), Fas-associated protein with death domain (FADD), Fas ligand (Fas), TNF-related apoptosis-inducing ligand (TRAIL), death receptor 5 (DR5), Tumor necrosis factor receptor type 1-associated DEATH domain (TRADD), receptor-interacting protein kinase 3 (RIP3), β-actin or GAPDH in 1:1000 dilution in 5% milk or 5% BSA at 4° C. Horseradish peroxidase-labeled (HRP) anti-rabbit or anti-mouse secondary antibodies (1:5,000 dilution) were added and incubated the next day for an additional 1 h. A ChemiDoc™ MP System imaging system from Bio-Rad (Hercules, CA, USA) was used for blots reading. Blots were used to obtain the protein bands, followed by quantification of the bands using image J software (NIH, Bethesda, MD, USA). All of the data were expressed as the ratio of β-actin or GAPDH.
On the technique in general: A western blot detects proteins with antibodies after separation by electrophoresis.

Another test relates to BT-20 or MDA-MB468 cells. The test can be described thus: Cellular reactive oxygen species (ROS) detection assay (H2DCFDA). The note with it: 1, 2, and 5 μM, 12 h. The procedure: To assess the effect of TPH104 on the generation of ROS, a cell permeant, fluorogenic dye, 2′,7′-dichlorofluorescin diacetate, H2DCFDA, was used. A 5 mM stock solution was prepared using DMSO and PBS was used to prepare the 3 μM working solution of H2DCFDA. The TNBC cells were seeded in a 6-well plate as described in the cell cycle assay. After overnight incubation, cells were incubated with different TPH104 (1, 2, 5 μM) or vehicle for 12 h or with 2 μM of paclitaxel (positive control) for 2 h. The H2DCFDA dye (3 μM) was added to each well and the plate was incubated for an additional 30 minutes. Subsequently, cells were washed 3 times in PBS to remove excess H2DCFDA dye. Thereafter, cells from each well were captured from randomly selected fields using a fluorescent microscope (EVOS-FLC cell imaging system, Thermofisher scientific) at 40× to determine the 2′,7′-dichlorofluorescein (DCF) fluorescence intensity, which is positively correlated with the generation of ROS.

Test [3] deals with LC3B-I, LC3B-II, LAMP1, Beclin-1, mTOR, ULK1, Rab7, Rab5 in BT-20 TNBC cells. The test can be described thus: Western blot, autophagy markers. The procedure: as §1

With `COc1ccc(O)c(/C=N/Nc2ncnc3scc(-c4ccc(C)cc4)c23)c1` [TPH104], the BT-20 cell proliferation result in the test with BT-20 cells was “concentration-dependent and time-dependent decrease”. For the same compound, in the test on MDA-MB468 and MDA-MB231, the “level of cells arrested in the S phase” value is reported as “significantly increased” and the “number of cells in the G1 phase” value is recorded as “significant reduction”. Further, the mitochondrial membrane potential result in test [1] is “did not significantly alter”. The “number of cells in the second quadrant (Q2), apoptotic cells” value in test [1] (flow cytometry) is “did not significantly alter”. The “expression levels of caspase 3 and cleaved caspase 3” value in test [2] (2 μM or 5 μM) is on record as “significantly decreased”. For the same compound, in test [2] (0.5, 1, 2, and 5 μM), the “expression levels of caspase 7 and caspase 9” value is on record as “did not significantly alter”; the “expression of Bcl2” value was “increased”. The “expression of Bak” value in test [2] (0.5, 1, 2, and 5 μM, BT-20 and MDA-MB468) is recorded as “not significantly altered”. Besides, in test [2] (1, 2, and 5 μM), the PARP cleavage entry is recorded as “significantly cleaved” and the “expression of cytochrome c” value is recorded as “significantly decreased”. Also, in test [2] (1, 2, and 5 μM, BT-20 and MDA-MB468), the “expression of Bax” value is reported as “significantly decreased”. Further, in the test on BT-20 or MDA-MB468 cells, the “DCF fluorescence levels (ROS)” value was “did not significantly alter”. Besides, the “expression levels of ULK1, Rab5, and Rab7” value in test [3] (0.5, 1, 2, or 5 μM) was “significantly reduced”. In addition, in test [3] (0.5, 1, 2, or 5, 12 h), the LC3B-I levels result is reported as “significantly increased” and the LC3B-II result is recorded as “no significant increase”. Further, the “expression of Beclin 1” value in test [3] (1, 2, and 5 μM for 12 h) is “significantly decreased”. For the same compound, in test [3] (1, 2, or 5 μM for 12 h), the “expression of mTOR” value is listed as “significantly increased”. Further, the “expression levels of LAMP1” value in test [3] (12 h) is on record as “no significant change”.
